Assay [1] concerns rabbit ventricular cardiomyocytes. Description: Annexin V marking of phosphatidylserine (apoptosis) after doxorubicin. It is filed as cell-based. As to conditions: 3 hrs after doxorubicin, control 100%. Here is the method:
(§1) Isolated ventricular cells are obtained from hearts of male New Zealand rabbits as described in A. d'Anglemont de Tassigny et al., Fund. Clin. Pharmacol, 18: 531-38, 2004. Briefly, the rabbits (2.0-2.5 kg) are anaesthetized with a pentobarbital solution (50 mg/kg) and they then receive heparin (200 IU/kg). The hearts are excised and immediately perfused, for 10-15 minutes by means of a Langendorff apparatus without recirculation with an oxygenated tyrode (calcium-free) isotonic solution (95%, 2-5% CO2) (in mM: NaCl 135, KCl 5.4, Na2PO4 0.33, MgCl2 1.0, HEPES 10, pH adjusted to 7.4 with 1N NaOH at 37° C., 280-300 mOsmol/kgH2O). Next, all the hearts are perfused for 3 minutes in the “recirculation” mode with the same calcium-free Tyrode solution (coronary flow rate, 10-15 mL/min) added with 1 mg/mL of type II collagenase and 0.28 mg/mL of XIV type protease. Finally, all the hearts are perfused in a mode without any recirculation with the same solution of Tyrode supplemented with 0.3 mM of CaCl2 for 10 min. The left ventricle is removed and cut into small pieces; cell dissociation is achieved by mild mechanical stirring. Extracellular calcium is added by increments every 15 minutes, in order to reach a physiological concentration of 1.0 mM. […]
Annexin V marking of phosphatidylserine was used as a quantitative method for measuring apoptosis by using the MiniMacs cell isolation kit (Miltenyi Biotec, Bergisch, Gladbach, Germany). […] The column is removed from the magnetic field, the cells exposing phosphatidylserine, magnetically retained, are eluted as a positive fraction and counted with a Mallassez cell counter. […]
(§2) Apoptosis is induced in isolated cardiomyocytes by 3-8 hour exposure to 1 μM of doxorubicin added into an isotonic solution containing (in mM) NaCl 110, KCl 5.4, Na2PO4 0.33, NaHCO3 25, glucose 5, MgCl2 0.8, CaCl2 1, pH adjusted to 7.4. […] The contractility of cardiomyocytes was measured every hour during the 8 hrs of exposure to doxorubicin. […]

For assay [2] the test system is unchanged. Description: Contractile dysfunction test induced by doxorubicin (sarcomer shortening). Type of assay: cell-based. As to conditions: after 4 hrs of exposure. How it is done:
A stock solution of 3,5-seco-4-nor-cholestan-5-one oxime-3-ol at a concentration of 10 mM in 100% DMSO was used.
The final concentration in DMSO was the same for all the experimental points, independently of the molecular concentrations used.
3,5-seco-4-nor-cholestan-5-one oxime-3-ol was tested at concentrations of 0.1 and 0.3 μM, diluted in a Tyrode solution (composition in mmol/L: NaCl 135, KCl 5.4, NaH2PO4 0.33, CaCl2 1.2, MgCl2 1.0, Hepes 10; pH adjusted to 7.4 with NaOH).
Isolated ventricular cells are obtained from hearts of male New Zealand rabbits as described in A. d'Anglemont de Tassigny et al., Fund. Clin. Pharmacol, 18: 531-38, 2004. Briefly, the rabbits (2.0-2.5 kg) are anaesthetized with a pentobarbital solution (50 mg/kg) and they then receive heparin (200 IU/kg). The hearts are excised and immediately perfused, for 10-15 minutes by means of a Langendorff apparatus without recirculation with an oxygenated tyrode (calcium-free) isotonic solution (95%, 2-5% CO2) (in mM: NaCl 135, KCl 5.4, Na2PO4 0.33, MgCl2 1.0, HEPES 10, pH adjusted to 7.4 with 1N NaOH at 37° C., 280-300 mOsmol/kgH2O). […]
The myocytes were selected for the study according to the following criterion: a rod-like aspect with very apparent striations and no intracellular vacuola, no spontaneous contraction when they are stimulated with 1 mM Ca^2+, and with constant rest length and contraction amplitude. The length of the sarcomers was measured by means of a video image analysis program and the data were acquired at a rate of 240 samples/s. […]
as §2

Another assay relates to caspase-3. Description: Caspase-3 activity (apoptosis) after doxorubicin. Type of assay: cell-based, rabbit. The note with it: 8 hrs after exposure, control 19±9. Here is the method: as §1
Caspase-3 activity is used as a quantitative method for measuring apoptosis. […] The fluorogenic substrate for measuring caspase-3 activity (DEVD) is marked with the fluorochrome, 7-amino-4-methyl coumarine (AMC), which produces […] fluorescence detectable in UV light at 360/460 nm for 210 min. […]
as §2

[3] abbreviates: doxorubicin 1 μM + compound 0.1 μM.
[4] abbreviates: doxorubicin 1 μM + compound 0.3 μM.

`CC(C)CCC[C@@H](C)[C@H]1CC[C@H]2[C@@H]3CC/C(=N\O)[C@](C)(CCCO)[C@H]3CC[C@]12C` [3,5-seco-4-nor-cholestan-5-one oxime-3-ol]: the “Apoptosis as % of change in annexin V marking” value in assay [1] (setting [3]) worked out at 116.3%; in assay [1] (setting [4]) it was 137.3%. For the same compound, the entries for the “shortening of the peak relatively to the base line” value in assay [2] (doxorubicin 1 μM + compound 0.1 μM (15 min pre-treatment)) and in assay [2] (doxorubicin 1 μM + compound 0.3 μM (15 min pre-treatment)) were 18.9±5.4% and −8.1±9.6%, respectively. Also, the caspase-3 activity stood at 27 ± 20 fmol/min with caspase-3 (setting [3]) and 15 ± 7 fmol/min with caspase-3 (setting [4]).

Source of the values: US7985774B2, “Use of 3,5-seco-4-nor-cholestane derivatives for obtaining a cytoprotective drug” (Trophos, priority 2006, dated 2011).
